Test results: patent publication US9981940B2, “Aryl sulfide derivatives and aryl sulfoxide derivatives as acaricides and insecticides” (BAYER CROPSCIENCE AKTIENGESELLSCHAFT, priority 2013, dated 2018)

System: not listed separately
Assay: log P by HPLC (OECD Guideline 117), method [a] acidic range
Type: physicochemical
Conditions: HPLC, method [a] acidic range
Method: (§1) The log P values were determined analogously to OECD Guideline 117 (EC Directive 92/69/EEC) by HPLC (high-performance liquid chromatography) using reversed-phase columns (C 18), by the following methods:
[a] The LC-MS determination in the acidic range is effected at pH 2.7 with 0.1% aqueous formic acid and acetonitrile (contains 0.1% formic acid) as eluents; linear gradient from 10% acetonitrile to 95% acetonitrile.

| logP[a] | Compound |
| --- | --- |
| 2.90 | CCCCOc1nn(-c2cc([S+]([O-])CC(F)(F)F)c(C)cc2F)c(=O)n1C (stereo not shown) [Example 146] |
| 2.52 | Cc1cc(F)c(-n2nc(OCC(F)(F)F)n(C)c2=O)cc1[S+]([O-])CC(F)(F)F (stereo not shown) [Example 160] |
| 2.45 | COc1nn(-c2cc([S+]([O-])CC(F)(F)F)c(Cl)cc2F)c(=O)n1C1CC1 (stereo not shown) [Example 115] |
| 2.62 | Cc1cc(F)c(-n2ncn(C3CC3)c2=O)cc1SCC(F)(F)F [Example 61] |
| 4.24 | Cc1cc(F)c(-n2nc(C(F)(F)F)n(N(C)C)c2=O)cc1SCC(F)(F)F [Example 214] |
| 2.54 | COc1nn(-c2ccc(Cl)c([S+]([O-])CC(F)(F)F)c2)c(=O)n1C (stereo not shown) [Example 99] |
| 2.48 | COc1nn(-c2cc([S+]([O-])CC(F)(F)F)c(C)cc2F)c(=O)n1CC(F)(F)F (stereo not shown) [Example 415] |
| 3.05 | Cc1cc(F)c(-n2nnn(CC(F)(F)C(F)(F)F)c2=O)cc1[S+]([O-])CC(F)(F)F (racemic) [Example 446] |
| 3.20 | COc1nn(-c2cc(SCC(F)(F)F)c(C)cc2Cl)c(=O)n1C1CC1 [Example 116] |
| 3.00 | COc1nn(-c2ccc(Br)c([S+]([O-])CC(F)(F)F)c2)c(=O)n1C1CC1 (stereo not shown) [Example 110] |
| 3.67 | C=C(C)CCOc1nn(-c2ccc(C)c([S+]([O-])CC(F)(F)F)c2)c(=O)n1C1CC1 (stereo not shown) [Example 139] |
| 3.91 | COc1nn(-c2ccc(Cl)c(SCC(F)(F)F)c2)c(=O)n1C1CC1 [Example 108] |
| 2.47 | COc1nn(-c2ccc(C#N)c([S+]([O-])CC(F)(F)F)c2)c(=O)n1C1CC1 (stereo not shown) [Example 118] |
| 2.28 | COc1nn(-c2cc([S+]([O-])CC(F)(F)F)c(C)cc2Cl)c(=O)n1C1CC1 (stereo not shown) [Example 117] |
| 4.20 | Cc1ccc(-n2nc(OCC3CC3)n(C)c2=O)cc1SCC(F)(F)F [Example 145] |
| 4.36 | CCC(C)Oc1nn(-c2cc(SCC(F)(F)F)c(C)cc2F)c(=O)n1C1CC1 (stereo not shown) [Example 140] |

System: Boophilus microplus
Assay: Boophilus microplus injection test (BOOPMI Inj)
Type: in vivo
Conditions: application rate of 20 μg/animal, assessed after 7 days by laying of fertile eggs
Method: Use Examples Boophilus microplus Injection Test (BOOPMI Inj) • Solvent: dimethyl sulphoxide
To prepare an appropriate active ingredient formulation, 10 mg of active ingredient are mixed with 0.5 ml of solvent and the concentrate is diluted with solvent to the desired concentration.
1 μl of the active ingredient solution is injected into the abdomen of 5 engorged adult female cattle ticks (Boophilus microplus). The animals are transferred into dishes and kept in a climate-controlled room.
The efficacy is assessed after 7 days by laying of fertile eggs. Eggs which are not visibly fertile are stored in a climate-controlled cabinet until the larvae hatch after about 42 days.
An efficacy of 100% means that none of the ticks has laid any fertile eggs; 0% means that all the eggs are fertile.

| Compound | efficacy [%] |
| --- | --- |
| Cc1cc(F)c(-n2nc(OCC(F)(F)F)n(C)c2=O)cc1[S+]([O-])CC(F)(F)F (stereo not shown) [Example 160] | 100 |
| COc1nn(-c2cc([S+]([O-])CC(F)(F)F)c(Cl)cc2F)c(=O)n1C1CC1 (stereo not shown) [Example 115] | 100 |
| COc1nn(-c2ccc(Cl)c([S+]([O-])CC(F)(F)F)c2)c(=O)n1C (stereo not shown) [Example 99] | 100 |
| COc1nn(-c2cc([S+]([O-])CC(F)(F)F)c(C)cc2F)c(=O)n1CC(F)(F)F (stereo not shown) [Example 415] | 100 |
| COc1nn(-c2cc(SCC(F)(F)F)c(C)cc2Cl)c(=O)n1C1CC1 [Example 116] | 100 |
| COc1nn(-c2cc([S+]([O-])CC(F)(F)F)c(C)cc2Cl)c(=O)n1C1CC1 (stereo not shown) [Example 117] | 100 |

System: Meloidogyne incognita
Assay: Meloidogyne incognita test (MELGIN)
Type: in vivo
Conditions: application rate of 20 ppm; after 14 days, by formation of galls
Method: Meloidogyne Incognita Test (MELGIN)
• Solvent: 125.0 parts by weight of acetone
To produce an appropriate active ingredient formulation, 1 part by weight of active ingredient is mixed with the specified amounts of solvent and the concentrate is diluted to the desired concentration with water.
Vessels are filled with sand, active ingredient solution, an egg/larvae suspension of the southern root-knot nematode (Meloidogyne incognita) and lettuce seeds. The lettuce seeds germinate and the plants develop. The galls develop on the roots
After 14 days, the nematicidal efficacy in % is determined by the formation of galls. 100% means that no galls have been found; 0% means that the number of galls on the treated plants corresponds to the untreated control.

| Compound | nematicidal efficacy [%] |
| --- | --- |
| CCCCOc1nn(-c2cc([S+]([O-])CC(F)(F)F)c(C)cc2F)c(=O)n1C (stereo not shown) [Example 146] | 90 |
| Cc1cc(F)c(-n2nc(OCC(F)(F)F)n(C)c2=O)cc1[S+]([O-])CC(F)(F)F (stereo not shown) [Example 160] | 100 |
| COc1nn(-c2cc([S+]([O-])CC(F)(F)F)c(Cl)cc2F)c(=O)n1C1CC1 (stereo not shown) [Example 115] | 90 |
| Cc1cc(F)c(-n2ncn(C3CC3)c2=O)cc1SCC(F)(F)F [Example 61] | 100 |
| Cc1cc(F)c(-n2nc(C(F)(F)F)n(N(C)C)c2=O)cc1SCC(F)(F)F [Example 214] | 90 |
| COc1nn(-c2ccc(Cl)c([S+]([O-])CC(F)(F)F)c2)c(=O)n1C (stereo not shown) [Example 99] | 90 |
| COc1nn(-c2cc([S+]([O-])CC(F)(F)F)c(C)cc2F)c(=O)n1CC(F)(F)F (stereo not shown) [Example 415] | 100 |
| Cc1cc(F)c(-n2nnn(CC(F)(F)C(F)(F)F)c2=O)cc1[S+]([O-])CC(F)(F)F (racemic) [Example 446] | 100 |
| COc1nn(-c2cc(SCC(F)(F)F)c(C)cc2Cl)c(=O)n1C1CC1 [Example 116] | 100 |
| COc1nn(-c2ccc(Br)c([S+]([O-])CC(F)(F)F)c2)c(=O)n1C1CC1 (stereo not shown) [Example 110] | 100 |
| C=C(C)CCOc1nn(-c2ccc(C)c([S+]([O-])CC(F)(F)F)c2)c(=O)n1C1CC1 (stereo not shown) [Example 139] | 90 |
| COc1nn(-c2ccc(Cl)c(SCC(F)(F)F)c2)c(=O)n1C1CC1 [Example 108] | 90 |
| COc1nn(-c2ccc(C#N)c([S+]([O-])CC(F)(F)F)c2)c(=O)n1C1CC1 (stereo not shown) [Example 118] | 100 |
| COc1nn(-c2cc([S+]([O-])CC(F)(F)F)c(C)cc2Cl)c(=O)n1C1CC1 (stereo not shown) [Example 117] | 100 |
| Cc1ccc(-n2nc(OCC3CC3)n(C)c2=O)cc1SCC(F)(F)F [Example 145] | 100 |
| CCC(C)Oc1nn(-c2cc(SCC(F)(F)F)c(C)cc2F)c(=O)n1C1CC1 (stereo not shown) [Example 140] | 90 |

System: not listed separately
Assay: log P by HPLC (OECD Guideline 117), method [b] neutral range
Type: physicochemical
Conditions: HPLC, method [b] neutral range
Method: as §1
[b] The LC-MS determination in the neutral range is effected at pH 7.8 with 0.001 molar aqueous ammonium hydrogencarbonate solution and acetonitrile as eluents; linear gradient from 10% acetonitrile to 95% acetonitrile.

| logP[b] | Compound |
| --- | --- |
| 2.85 | CCCCOc1nn(-c2cc([S+]([O-])CC(F)(F)F)c(C)cc2F)c(=O)n1C (stereo not shown) [Example 146] |
| 2.38 | Cc1cc(F)c(-n2nc(OCC(F)(F)F)n(C)c2=O)cc1[S+]([O-])CC(F)(F)F (stereo not shown) [Example 160] |
| 2.43 | COc1nn(-c2cc([S+]([O-])CC(F)(F)F)c(Cl)cc2F)c(=O)n1C1CC1 (stereo not shown) [Example 115] |
| 2.59 | Cc1cc(F)c(-n2ncn(C3CC3)c2=O)cc1SCC(F)(F)F [Example 61] |
| 4.15 | Cc1cc(F)c(-n2nc(C(F)(F)F)n(N(C)C)c2=O)cc1SCC(F)(F)F [Example 214] |
| 2.52 | COc1nn(-c2ccc(Cl)c([S+]([O-])CC(F)(F)F)c2)c(=O)n1C (stereo not shown) [Example 99] |
| 2.45 | COc1nn(-c2cc([S+]([O-])CC(F)(F)F)c(C)cc2F)c(=O)n1CC(F)(F)F (stereo not shown) [Example 415] |
| 3.01 | Cc1cc(F)c(-n2nnn(CC(F)(F)C(F)(F)F)c2=O)cc1[S+]([O-])CC(F)(F)F (racemic) [Example 446] |
| 3.30 | COc1nn(-c2cc(SCC(F)(F)F)c(C)cc2Cl)c(=O)n1C1CC1 [Example 116] |
| 2.95 | COc1nn(-c2ccc(Br)c([S+]([O-])CC(F)(F)F)c2)c(=O)n1C1CC1 (stereo not shown) [Example 110] |
| 3.60 | C=C(C)CCOc1nn(-c2ccc(C)c([S+]([O-])CC(F)(F)F)c2)c(=O)n1C1CC1 (stereo not shown) [Example 139] |
| 3.84 | COc1nn(-c2ccc(Cl)c(SCC(F)(F)F)c2)c(=O)n1C1CC1 [Example 108] |
| 2.43 | COc1nn(-c2ccc(C#N)c([S+]([O-])CC(F)(F)F)c2)c(=O)n1C1CC1 (stereo not shown) [Example 118] |
| 2.30 | COc1nn(-c2cc([S+]([O-])CC(F)(F)F)c(C)cc2Cl)c(=O)n1C1CC1 (stereo not shown) [Example 117] |
| 4.19 | Cc1ccc(-n2nc(OCC3CC3)n(C)c2=O)cc1SCC(F)(F)F [Example 145] |
| 4.30 | CCC(C)Oc1nn(-c2cc(SCC(F)(F)F)c(C)cc2F)c(=O)n1C1CC1 (stereo not shown) [Example 140] |

System: Tetranychus urticae
Assay: Tetranychus urticae spray test, OP-resistant (TETRUR)
Type: in vivo
Conditions: application rate of 500 g/ha; after 6 days
In short: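 Mortality as % efficacy (0% = no mites killed) read 6 days after spraying. Formulation: active ingredient in acetone/dimethylformamide plus emulsifier, diluted with emulsifier-containing water, applied to Phaseolus vulgaris leaf discs carrying every life stage of OP-resistant spider mites.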

| Compound | efficacy [%] |
| --- | --- |
| CCCCOc1nn(-c2cc([S+]([O-])CC(F)(F)F)c(C)cc2F)c(=O)n1C (stereo not shown) [Example 146] | 100 |
| Cc1cc(F)c(-n2nc(OCC(F)(F)F)n(C)c2=O)cc1[S+]([O-])CC(F)(F)F (stereo not shown) [Example 160] | 100 |
| COc1nn(-c2cc([S+]([O-])CC(F)(F)F)c(Cl)cc2F)c(=O)n1C1CC1 (stereo not shown) [Example 115] | 100 |
| Cc1cc(F)c(-n2ncn(C3CC3)c2=O)cc1SCC(F)(F)F [Example 61] | 100 |
| COc1nn(-c2ccc(Cl)c([S+]([O-])CC(F)(F)F)c2)c(=O)n1C (stereo not shown) [Example 99] | 90 |
| COc1nn(-c2cc([S+]([O-])CC(F)(F)F)c(C)cc2F)c(=O)n1CC(F)(F)F (stereo not shown) [Example 415] | 90 |
| Cc1cc(F)c(-n2nnn(CC(F)(F)C(F)(F)F)c2=O)cc1[S+]([O-])CC(F)(F)F (racemic) [Example 446] | 90 |
| COc1nn(-c2cc(SCC(F)(F)F)c(C)cc2Cl)c(=O)n1C1CC1 [Example 116] | 90 |
| COc1nn(-c2cc([S+]([O-])CC(F)(F)F)c(C)cc2Cl)c(=O)n1C1CC1 (stereo not shown) [Example 117] | 90 |
| CCC(C)Oc1nn(-c2cc(SCC(F)(F)F)c(C)cc2F)c(=O)n1C1CC1 (stereo not shown) [Example 140] | 100 |
